Results as given in patent US20260183306A1, “Methods for Treating Respiratory Diseases Characterized by Mucus Hypersecretion” (The Board of Trustees of the Leland Stanford Junior …, priority 2022, published 2026).
“Also recorded” adds a separate entry of the source.

Assays:
[1] = tested on: primary cystic fibrosis airway epithelial cells; assay: MCC formation in cystic fibrosis airway epithelial cultures; assay type: cell-based, human; conditions: for multiciliated cell formation in mature CF cultures: mature (ALI+30d) CF cultures treated one week (ALI+30 to +37d); for MCC differentiation with semagacestat in combination with Lumacaftor (and Ivacaftor): semagacestat ALI+0-21d, Lumacaftor ALI+19-21d, Ivacaftor ten minutes, wild-type and CF cultures; for MCC/total cell ratio in CF patient-derived cultures: treated during differentiation only (ALI+0 to +21d), homemade medium
Procedure: To assess the effects of combining semagacestat and CFTR modulator treatment, wild-type control and CF (F508AIF5080) HNEC cultures were grown to maturity with or without semagacestat from ALI+0-21d and cultures were treated with or without Lumacaftor (VX-809) from ALI+19-21d and Ivacaftor (VX-770) for ten minutes prior to fixation. PFA fixed membranes were then stained for Acetylated tubulin (green; MCCs) and E-Cadherin (red).
Primary healthy and cystic fibrosis airway epithelial cells were treated with semagacestat (LY45139) during differentiation only (ALI+0 to +21 d) and labeled at ALI+21d with anti-acetylated α-Tubulin (green) and ECAD (red) antibodies. […] Restoration of a healthy MCC/total cell ratio is expected to improve mucociliary clearance.
Mature (ALI+30d) primary cystic fibrosis human airway epithelial cells were treated with DAPT for one week (ALI+30 to +37d), then labeled with anti-acetylated α-Tubulin (green) and ECAD (red) antibodies.
As observed in healthy HNECs, GSI-induced multiciliated cells in CF HNECs are structurally normal, and GSI treatment in both differentiating and mature CF cultures can mitigate multiciliated cell loss (FIG. 41, 43A-B).
Primary human nasal epithelial cell (HNEC) cultures. […] Primary air-liquid interface (ALI) culture of nasal epithelial cells from passage 0 (P0) or P1 basal stem cells was carried out as previously described (24,30). Briefly, cells are removed from cytobrushes with gentle enzymatic digestion. P0 HNEC cultures are initiated by seeding freshly isolated cells onto Collagen I coated Transwell filters. P1 HNEC cultures are initiated from basal cells that were first expanded on Collagen I coated plastic dishes in proliferation medium supplemented with Y-27632 (ROCK inhibitor, 10 μM), DMH-1 (BMP inhibitor, 1 μM), A-83-01, (TGF-β inhibitor, 1 μM), and CHIR99021 (WNT agonist, 1 μM)(42), all from Selleckchem. HNECs seeded onto Transwells are initially cultured submerged in proliferation medium until confluency, then lifted to ALI (considered as ALI+0d of culture) by supplying differentiation medium only from the bottom compartment. HNECs are considered mature at ALI+21d of culture. Healthy and CF HNECs used in the study were cultured in homemade media (24). CF HNECs used for the Ussing chamber measurements only were cultured in Pneumacult Ex+(proliferation) and Pneumacult ALI (differentiation) media (Stemcell). […] Healthy HNECs were treated with 10 ng/ml recombinant human IL-13 (RnD Systems).

airway epithelia in mice = assay: MCC number in airway epithelium of Foxj1-GFP mice after intraperitoneal GSI; assay type: in vivo, mouse
Procedure: 10-40 week age-matched male and female Foxj1-GFP mice were given semagacestat or vehicle by intraperitoneal (IP) administration. In the first experiment, semagacestat was administered at 0.1 mg/kg and 1 mg/kg twice daily for three days and compared to vehicle alone. Mice were sacrificed on day 7. […] In approximately similar sized, PFA-fixed airways, nuclei (red; DAPI) were scored either as MCCs (green; GFP) or non-ciliated cells (absence of GFP). Acetylated tubulin (blue) marks cilia. Samples were blinded for treatment group prior to scoring.
In the second experiment, vehicle and semagacestat were administered once daily for 5 consecutive days per week for three weeks, with a semagacestat dose of 1 mg/kg. An important observed toxicity in multiple GSI clinical trials, including large Alzheimer's Disease trials, was gastrointestinal toxicity. As a surrogate measure of GI toxicity, we monitored body weight throughout the experiment. Body weight was measured on Days 1, 9, 24 and 30, and mice were sacrificed on day 31.
The impact of LY450139 in mouse models of neurodegeneration has been studied extensively (27,28). In these models, LY450139 were administered systemically for weeks to months at a time at up to 100 mg/kg. It was sought to determine if a substantially lower dose administered for a shorter duration would be sufficient to induce an increase in the proportion of multiciliated cells in the intact airway epithelium of healthy adult mice. Mice were first treated with 1 or 0.1 mg/kg of LY450139, 10 mg/kg DAPT or vehicle control twice daily for three consecutive days via intraperitoneal injection and then assessed on day 7 (FIG. 42A). To quantitate multiciliated cells, treatments were carried out in Foxj1/EGFP transgenic mice that expresses cytoplasmic GFP under the multiciliated cell specific Foxj1 promoter (32). Multiciliated cell number was quantitated in airways of similar size in lung tissue sections. Cells were identified by DAPI nuclear staining and were counted as multiciliated if the DAPI staining overlapped with GFP signal (FIG. 42B).
Mouse husbandry and GSI treatment in mice. Foxj1/EGFP mice have been previously described (32,44). 10-40 week age-matched male and female Foxj1/EGFP mice were treated with LY450139 or vehicle control by intraperitoneal (IF) administration. In the first experiment, 0.1 mg/kg, or 1 mg/kg LY450139, 10 mg/kg DAPT or saline vehicle was administered twice daily for three consecutive days, then the mice were sacrificed on day 7. In the second experiment, 1 mg/kg LY450139 or saline vehicle was administered once daily for five consecutive days per week for three weeks, then the mice were sacrificed on day 30. Body weight was monitored as a surrogate measure of GI toxicity. For both studies, the lungs were cryoembedded en bloc in OCT compound (Thermo Fisher). Cryosections were formalin fixed, then labeled with anti-GFP and acetylated α-Tubulin antibodies and stained with DAPI to mark nuclei. Images were acquired using a Leica SP8 confocal microscope and analyzed by three independent blinded investigators. In airways of approximately uniform size viewed in cross section, cells were first identified by DAPI signal, and then scored either as multiciliated cells (GFP positive) or nonciliated cells (GFP negative). Ac. α-Tubulin signal was used as an additional identifying feature for multiciliated cells. All procedures involving animals were approved by the Institutional Animal Care and Use Committee of Stanford University School of Medicine in accordance with established guidelines for animal care.

Compound | multiciliated cell formation in mature CF cultures [1] | multiciliated cell formation in mature CF cultures ([1]; listed as DAFT) | number of multiciliated cells in airways (airway epithelia in mice; 10 mg/kg DAPT IP twice daily for three days, assessed day 7) | MCC differentiation with semagacestat in combination with Lumacaftor (and Ivacaftor) [1] | MCC differentiation with semagacestat in combination with Lumacaftor (and Ivacaftor) ([1]; listed as Semagacestat) | MCC response of CF patients not eligible for Trikafta ([1]; semagacestat alone, not shown) | MCC/total cell ratio in CF patient-derived cultures ([1]; listed as LY45139) | MCC/total cell ratio in CF patient-derived cultures ([1]; listed as LY450139) | ratio of ciliated to non-ciliated cells / multiciliated cell number in airways (airway epithelia in mice; 0.1 mg/kg IP twice daily for three days, assessed day 7) | ratio of ciliated to non-ciliated cells / multiciliated cell number in airways (airway epithelia in mice; 0.1 mg/kg IP twice daily for three days, assessed day 7, listed as LY450139) | ratio of ciliated to non-ciliated cells / multiciliated cell number in airways (airway epithelia in mice; 1 mg/kg IP once daily, 5 consecutive days per week for three weeks, assessed day 30/31) | ratio of ciliated to non-ciliated cells / multiciliated cell number in airways (airway epithelia in mice; 1 mg/kg IP once daily, 5 consecutive days per week for three weeks, assessed day 30/31, listed as LY450139) | ratio of ciliated to non-ciliated cells / multiciliated cell number in airways (airway epithelia in mice; 1 mg/kg IP twice daily for three days, assessed day 7) | ratio of ciliated to non-ciliated cells / multiciliated cell number in airways (airway epithelia in mice; 1 mg/kg IP twice daily for three days, assessed day 7, listed as LY450139)
C[C@H](NC(=O)Cc1cc(F)cc(F)c1)C(=O)NC(C(=O)OC(C)(C)C)c1ccccc1 (some centres unmarked) [DAPT] | induces the formation of additional multiciliated cells in mature cystic fibrosis cultures; also recorded: induces the formation of additional multiciliated cells in mature CF cultures | induces the formation of additional multiciliated cells in mature cystic fibrosis cultures | modest, but statistically significant increase in the number of multiciliated cells | – | – | – | – | – | – | – | – | – | – | –
CC(C)[C@H](O)C(=O)N[C@@H](C)C(=O)N[C@@H]1C(=O)N(C)CCc2ccccc21 [semagacestat, (2S)-2-hydroxy-3-methyl-N-[(1 S)-1-methyl-2-oxo-2-[[(1 S)-2,3,4,5-tetrahydro-3-methyl-2-oxo-1H-3-benzazepin-1-yl]amino]ethyl]-butamide] | – | – | – | as well as or better than cultures treated with semagacestat alone; also recorded: no significant decrease in semagacestat-induced MCC response was seen | effective at increasing the percentage of MCCs in the presence of Lumacaftor | respond to semagacestat alone similarly to those on corrector therapy | effective in increasing MCC/total cell ratio | similarly normalized proportion of multiciliated cells; also recorded: restores multiciliated cell numbers in CF cultures; also recorded: increases multiciliated cell number in CF cultures | increase in the ratio of ciliated to non-ciliated cells | trend towards more multiciliated cells that did not reach statistical significance | significant increase in the ratio of ciliated to non-ciliated cells | induced an increase in the proportion of multiciliated cells; also recorded: efficacious; also recorded: increased multiciliated cell number | increase in the ratio of ciliated to non-ciliated cells | modest, but statistically significant increase in the number of multiciliated cells; also recorded: sufficient to increase multiciliated cell numbers; also recorded: increased multiciliated cell number
